Read-outs that look alike come from different tables or passages of the source.
Columns and labels:
[1] = system: B-lymphocytes from the whole spleen of mice; experiment: LPS-induced responsive proliferation of B-lymphocytes ([3H] thymidine); format: cell-based; settings: for Proliferation of B-lymphoctes LPS stimulation Average of CPM values / Proliferation of B-lymphocytes LPS stimulation Average of CPM values: LPS at 10 μg/ml, 48 hours; for inhibition of LPS-induced responsive proliferation of B-lymphocytes: final concentration range from 1 μg/ml to 100 μg/ml
Experimental: 5.2.1. Mice were sacrificed by removing spondyle, spleen was cut off in a sterile condition and then ground to obtain single cell suspension. After erythrocytes were got rid of the remained cells were diluted to […] with RPMI-1640 culture solution containing 10% fetal bovine serum.
5.2.2. 200 μl solution in total volume (including 100 μl the cell suspension, 50 μl sample and 50 μl ConA or LPS) was dispensed on 96-well plate.
50 μl culture solution containing 10% fetal bovine serum, instead of 50 μl sample, was added as negative control, in which the total volume was also 200 μl.
5.2.3. The cell was cultured at 37° C. and under 5% CO2 in incubator for 48 hours, and [^3H] thymidine (1.9×10^4 Bq) was added to the plate at 25 μl/well 12 hours before the end of culture.
5.2.4. The culture was continued. The plates were then stored at −20° C. in refrigeratory after the culture. The thawed cells were collected to fiberglass membrane (Nitrocellose membrane) with cell collector when detecting. After the addition of Scintillation solution, the quantity of [^3H] thymidine incorporated into DNA of cells was detected by Beta counter (MicroBeta Trilux, PerkinElmer LifeSciences). The proliferation of lymphocytes was indicated by cpm value.
Effect of the medicament on LPS-induced responsive proliferation of B-lymphocytes was examined, said B-lymphocytes were from the whole spleen of mice. LPS at 10 μg/ml final concentration was used as the stimulator to induce responsive proliferation of B-lymphocytes from the whole spleen of ICR homogenous mice (cultured in vitro for 48 hours).

injured skin = experiment: Effect of anemonin on the injured skin in mice (visual irritation score); format: in vivo, ICR mice; parameters: Irritation Score: scale not given here
Experimental: ICR mice were utilized for the studies. The dorsal hair of mice was cut and injured 24 hour before experiment. 25% ethanol (0.5 ml) and the liniment solution of anemonin (0.05, 0.5, 5 mg/ml, 0.5 ml) were coated 4 h a day for 7 days on the area of hairless which was 2×2 cm^2 per mice. The skin irritation was evaluated by visual scoring (Table C-3 and C-4) everyday. The mice were continuously observed for 7 days after stopping applying. […] The injured skin of application 0.5 mg/ml anemonin also healed up within 7 days.

[2] = 0.05 mg/ml on injured skin, Day 1, Treatment
[3] = 0.05 mg/ml on injured skin, Day 2, Treatment
[4] = 0.05 mg/ml on injured skin, Day 3, Treatment
[5] = 0.05 mg/ml on injured skin, Day 4, Treatment
[6] = 0.05 mg/ml on injured skin, Day 5, Treatment
[7] = 0.05 mg/ml on injured skin, Day 6, Treatment
[8] = 0.05 mg/ml on injured skin, Day 7, Treatment
[9] = 0.05 mg/ml on injured skin, Day 8, Observation
[10] = 0.05 mg/ml on injured skin, Day 9, Observation
[11] = 0.05 mg/ml on injured skin, Day 10, Observation
[12] = 0.05 mg/ml on injured skin, Day 11, Observation
[13] = 0.05 mg/ml on injured skin, Day 12, Observation
[14] = 0.05 mg/ml on injured skin, Day 13, Observation
[15] = 0.05 mg/ml on injured skin, Day 14, Observation
[16] = 0.5 mg/ml on injured skin, Day 1, Treatment
[17] = 0.5 mg/ml on injured skin, Day 2, Treatment
[18] = 0.5 mg/ml on injured skin, Day 3, Treatment
[19] = 0.5 mg/ml on injured skin, Day 4, Treatment
[20] = 0.5 mg/ml on injured skin, Day 5, Treatment

O=C1C=CC2(CCC23C=CC(=O)O3)O1 (stereo not shown) [Anemonin, anemonin]
Proliferation of B-lymphoctes LPS stimulation Average of CPM values ([1]; 0.001 μg/ml, Table B-6): 39272 CPM
Proliferation of B-lymphoctes LPS stimulation Average of CPM values ([1]; 0.01 μg/ml, Table B-6): 39551 CPM
Proliferation of B-lymphoctes LPS stimulation Average of CPM values ([1]; 0.1 μg/ml, Table B-6): 39615 CPM
Proliferation of B-lymphocytes LPS stimulation Average of CPM values ([1]; 1 μg/ml, Table B-5): 10137 CPM
Proliferation of B-lymphoctes LPS stimulation Average of CPM values ([1]; 1 μg/ml, Table B-6): 32154 CPM
Proliferation of B-lymphocytes LPS stimulation Average of CPM values ([1]; 10 μg/ml, Table B-5): 190 CPM
Proliferation of B-lymphoctes LPS stimulation Average of CPM values ([1]; 10 μg/ml, Table B-6): 40840 CPM
Proliferation of B-lymphocytes LPS stimulation Average of CPM values ([1]; 100 μg/ml, Table B-5): 164 CPM
Proliferation of B-lymphoctes LPS stimulation Average of CPM values ([1]; 100 μg/ml, Table B-6): 24523 CPM
inhibition at 0.001 µg/mL ([1]; Mus musculus, 0.001 μg/ml, LPS stimulation, Table B-6, read-out: General assess of activity Enhancement/Inhibition): -7%
inhibition at 0.01 µg/mL ([1]; Mus musculus, 0.01 μg/ml, LPS stimulation, Table B-6, read-out: General assess of activity Enhancement/Inhibition): -8%
inhibition at 0.1 µg/mL ([1]; Mus musculus, 0.1 μg/ml, LPS stimulation, Table B-6, read-out: General assess of activity Enhancement/Inhibition): -8%
inhibition at 1 µg/mL ([1]; Mus musculus, 1 μg/ml, LPS stimulation, Table B-5, read-out: General assess of activity Enhancement/Inhibition): 33%
inhibition at 1 µg/mL ([1]; Mus musculus, 1 μg/ml, LPS stimulation, Table B-6, read-out: General assess of activity Enhancement/Inhibition): 13%
inhibition at 10 µg/mL ([1]; Mus musculus, 10 μg/ml, LPS stimulation, Table B-5, read-out: General assess of activity Enhancement/Inhibition): 99%
inhibition at 10 µg/mL ([1]; Mus musculus, 10 μg/ml, LPS stimulation, Table B-6, read-out: General assess of activity Enhancement/Inhibition): -11%
inhibition at 100 µg/mL ([1]; Mus musculus, 100 μg/ml, LPS stimulation, Table B-5, read-out: General assess of activity Enhancement/Inhibition): 99%
inhibition at 100 µg/mL ([1]; Mus musculus, 100 μg/ml, LPS stimulation, Table B-6, read-out: General assess of activity Enhancement/Inhibition): 33%
inhibition of LPS-induced responsive proliferation of B-lymphocytes [1]: sharply inhibited
inhibition of LPS-induced responsive proliferation of B-lymphocytes ([1]; listed as anemonin): remarkably inhibited
Irritation Grade (injured skin; [2]): No (No irritation <0.5)
Irritation Score (injured skin; [2]): 0
Irritation Grade (injured skin; [3]): No (No irritation <0.5)
Irritation Score (injured skin; [3]): 0
Irritation Grade (injured skin; [4]): No (No irritation <0.5)
Irritation Score (injured skin; [4]): 0
Irritation Grade (injured skin; [5]): No (No irritation <0.5)
Irritation Score (injured skin; [5]): 0
Irritation Grade (injured skin; [6]): No (No irritation <0.5)
Irritation Score (injured skin; [6]): 0
Irritation Grade (injured skin; [7]): No (No irritation <0.5)
Irritation Score (injured skin; [7]): 0
Irritation Grade (injured skin; [8]): No (No irritation <0.5)
Irritation Score (injured skin; [8]): 0
Irritation Grade (injured skin; [9]): No (No irritation <0.5)
Irritation Score (injured skin; [9]): 0
Irritation Grade (injured skin; [10]): No (No irritation <0.5)
Irritation Score (injured skin; [10]): 0
Irritation Grade (injured skin; [11]): No (No irritation <0.5)
Irritation Score (injured skin; [11]): 0
Irritation Grade (injured skin; [12]): No (No irritation <0.5)
Irritation Score (injured skin; [12]): 0
Irritation Grade (injured skin; [13]): No (No irritation <0.5)
Irritation Score (injured skin; [13]): 0
Irritation Grade (injured skin; [14]): No (No irritation <0.5)
Irritation Score (injured skin; [14]): 0
Irritation Grade (injured skin; [15]): No (No irritation <0.5)
Irritation Score (injured skin; [15]): 0
Irritation Grade (injured skin; [16]): Mild (Mide irritation <2.09)
Irritation Score (injured skin; [16]): 1
Irritation Grade (injured skin; [17]): No (No irritation <0.5)
Irritation Score (injured skin; [17]): 0.25
Irritation Grade (injured skin; [18]): No (No irritation <0.5)
Irritation Score (injured skin; [18]): 0.25
Irritation Grade (injured skin; [19]): No (No irritation <0.5)
Irritation Score (injured skin; [19]): 0.25
Irritation Grade (injured skin; [20]): No (No irritation <0.5)
Irritation Score (injured skin; [20]): 0.125

Source: US7297353B2, “Use of anemonin for treating aseptic inflammations” (priority 2000, dated 2007)
